Reference: article PMC3509626, “Antifungal Activity of (KW)n or (RW)n Peptide against Fusarium solani and Fusarium oxysporum” (International Journal of Molecular Sciences, 2012)
Where two headings read alike, the source gives them in different places. Ends that are not written are not given here.

Tests used:
Type in all cases: cell-based
[1] = system: Fusarium oxysporum (KCTC 6076); details: KCTC 6076, 3 h
Protocol: (§1) Rink amide 4-methylbenzhydrylamine resin, fluoren-9-ylmethoxycarbonyl (Fmoc) amino acids, and other reagents for peptide synthesis were purchased from Calibiochem-Novabiochem (La Jolla, CA, USA). For the quantitative antifungal assay and fungicidal activity assay, the following fungal strains were obtained from the Korea Collection for Type Cultures (KCTC): F. solani (KCTC 6326) and F. oxysporum (KCTC 6076). Fungal cells were grown on PDA (potato dextrose agar) plate and subcultured for 2–3 weeks.
(§2) The spore suspension at a concentration of 5 × 10^4 spores/mL (80 μL) was transferred to a 96-well microtiter plate along with 20 μL of (KW)n or (RW)n peptides (n = 3, 4, and 5), melittin, or media to give final peptide concentrations of 4–32 μM. Plates were incubated for 3 h before the addition of 10 μL of 3-(4,5-dimethylthiazol-2-yl)-2,5-diphenyltetrazolium bromide (MTT; 5 mg/mL; Sigma). Plates were then incubated again for 16 h at room temperature, followed by the addition of 100 μL of MTT solvent (0.1 N HCl in anhydrous isopropyl alcohol). Presence of MTT/formazan was monitored spectrophotometrically by measuring the absorbance at 570 nm and then subtracting the background absorbance at 690 nm using a Versa-Max microplate Elisa reader (Molecular Devices, Sunnyvale, CA, USA). Each measurement was conducted in triplicate.

[2] = system: Fusarium solani (KCTC 6326); details: KCTC 6326, 3 h
Protocol: as §1, §2

[3] = system: Fusarium oxysporum (KCTC 6076); details: F. oxysporum, peptide at 64 μM, 24 h, 25 °C
Protocol: as §1
(§3) Fungal fragments, precultured in mycelial growth medium, were placed in the center of PDA plates, after which the cultures were incubated for 96 h at 25 °C in the dark. After incubation, spores were isolated from cultures growing in half-strength PDA. Spore concentrations were then adjusted to 5 × 10^4 spores/mL in half-strength PDA, after which 80 μL was added to the wells of sterile 96-well flat-bottomed microtiter plates along with 20 μL of peptide or media to give final concentrations of 1–64 μM. Several wells were kept untreated as a control to monitor fungal growth. Plates were incubated in the dark at 25 °C for 24 h before hyphal growth was determined by measuring optical density at 595 nm using a microtiter plate Elisa reader (Molecular Devices, Sunnyvale, CA, USA). Each test was performed in triplicate. Percentages of inhibition were then calculated (Figure 1) (0% inhibition indicates growth equal to control sample (only media)). The lowest concentration of peptide inhibiting fungal growth was monitored microscopically with an inverted light microscope (IX71, Olympus, Tokyo, Japan).

[4] = system: Fusarium solani (KCTC 6326); details: for growth inhibition (conidial germination and hyphal growth): F. solani, peptide at 64 μM, 24 h, 25 °C; for concentration at which antifungal effects were exhibited (below MIC): KCTC 6326, 24 h
Protocol: as §1, §3

Compound | cells killed [1] | cells killed [2] | growth inhibition (conidial germination and hyphal growth) [3] | growth inhibition (conidial germination and hyphal growth) [4] | concentration at which antifungal effects were exhibited (below MIC) [4] | also measured
N=C(N)NCCC[C@H](NC(=O)[C@H](Cc1c[nH]c2ccccc12)NC(=O)[C@H](CCCNC(=N)N)NC(=O)[C@H](Cc1c[nH]c2ccccc12)NC(=O)[C@H](CCCNC(=N)N)NC(=O)[C@H](Cc1c[nH]c2ccccc12)NC(=O)[C@H](CCCNC(=N)N)NC(=O)[C@H](Cc1c[nH]c2ccccc12)NC(=O)[C@@H](N)CCCNC(=N)N)C(=O)N[C@@H](Cc1c[nH]c2ccccc12)C(N)=O [(RW)5, RWRWRWRWRW-NH2] | 79% | 75% | – | – | – | –
KWKW-NH2 [(KW)2, tetrameric Lys-Trp repeat peptide amide] | – | – | did not inhibit growth | did not inhibit growth | – | growth inhibition (conidial germination and hyphal growth) ([3]; listed as (KW)2-NH2): non-inhibition; growth inhibition (conidial germination and hyphal growth) ([4]; listed as (KW)2-NH2): non-inhibition
KWKWKWKW-NH2 [(KW)4, KWKWKWKW-NH2] | 74% | 68% | – | – | 4 µM | –
KWKWKWKWKW-NH2 [(KW)5, KWKWKWKWKW-NH2] | 76% | 72% | – | – | – | –
RWRW-NH2 [(RW)2, tetrameric Arg-Trp repeat peptide amide] | – | – | did not inhibit growth | did not inhibit growth | – | growth inhibition (conidial germination and hyphal growth) ([3]; listed as (RW)2-NH2): non-inhibition; growth inhibition (conidial germination and hyphal growth) ([4]; listed as (RW)2-NH2): non-inhibition
RWRWRWRW-NH2 [(RW)4, RWRWRWRW-NH2] | 76% | 69% | – | – | 4 µM | –
